Results on eight molecules are retold here after patent publication US7582604B2, “Template-fixed peptidomimetics with antibacterial activity” (Polyphor Ltd., priority 2002, dated 2009).

Data set [1] deals with Escherichia coli ATCC 43827. The class given is cell-based.
Data set [2] has as its system P. aeruginosa VO216085 (clinical isolate). The class given is cell-based, Pseudomonas aeruginosa. The procedure:
(§1) Lyophilized peptides were weighed on a Microbalance (Mettler MT5) and dissolved in sterile water containing 0.01% acetic acid.
(§2) The selective antimicrobial activities of the peptides were determined by the standard NCCLS broth microdilution method (see ref 1, below) examined in sterile 96-wells plates (Nunclon polystyrene microtiter plates) in a total volume of 100 μl. Innocula of the microorganisms were prepared with 0.5 Mcfarland standard and then diluted into Müeller-Hinton (MH^+) broth to give appr. 10^6 colony forming units (CFU)/rnl for bacteria Aliquots (50 μl) of the innocula were added to 50 μl of MH broth containing the peptide in serial twofold dilutions. For the screening of the peptides displaying selectivity, the following microorganisms were used: Escherichia coli (ATCC 25922), Pseudomonas aeruginosa (P. aeruginosa) (ATCC 27853), Staphylococcus aureus (ATCC 29213 and ATCC 25923), and clinical isolates of Pseudomonas aeruginosa (P. aeruginosa) V02 16085 and Acinetobacter (Acinetobacter V04 19905/1, Acinetobacter V12 21143/1 and Acinetobacter V12 21193/1). Antimicrobial activities of the peptides were expressed as the minimal inhibitory concentration (MIC) in μg/ml at which no visible growth was observed after 18-20 hours of incubation of the microtiter plates at 37° C.
(§3) Salt sensitivity of the peptides was tested by the microtiter serial dilution assay as described above. Only MH broth was replaced by MH broth containing 0.9% NaCl.

For data set [3], the system named is P. aeruginosa ATCC 278853. The class given is cell-based, Pseudomonas aeruginosa. The procedure: as §1, §2, §3
Data set [4] deals with Escherichia coli ATCC 25922. The class given is cell-based. The procedure:
as §1, §2, §3

Data set [5] has as its system Acinetobacter V12 21193/1 (clinical isolate). The class given is cell-based. The procedure:
as §1, §2, §3

Data set [6] concerns Acinetobacter V12 21143/1 (clinical isolate). The class given is cell-based. The procedure: as §1, §2, §3
Data set [7] concerns Staphylococcus aureus ATCC 29213. Kind of data set: MIC, NCCLS broth microdilution in Mueller-Hinton broth. The class given is cell-based. Particulars: 18-20 hours at 37° C. The procedure:
as §1, §2

Data set [8] has as its system human red blood cells (hRBC). The class given is cell-based. Particulars: red cells of human, 1 h. The procedure: The peptides were tested for their hemolytic activity against human red blood cells (hRBC). Fresh hRBC were washed three times with phosphate buffered saline (PBS) by centrifugation for 10 min at 2000×g. Peptides at a concentration of 100 μg/ml were incubated with 20% v/v hRBC for 1 hour at 37° C. The final erythrocyte concentration was appr. 0.9×10^9/ml. A value of 0% resp. 100% cell lysis was determined by incubation of the hRBC in the presence of PBS alone and resp. 0.1% Triton X-100 in H2O. The samples were centrifuged and the supernatant was 20 fold diluted in PBS buffer and the optical density (OD) of the sample at […] was measured. The 100% lysis value (OD540H2O) gave an OD of approximately 1.6-2.0. Percent hemolysis was calculated as follows: […]

Values after ≈ are worked out from the molar mass of the structure shown. Where a SMILES comes first, the peptide text is derived from it. [ ]: non-standard residue; d: D form.

Turning to `CC(C)C[C@@H]1NC(=O)[C@H](Cc2c[nH]c3ccccc23)NC(=O)[C@H](CCCNC(=N)N)NC(=O)[C@@H]2CCCN2C(=O)[C@H]2CCCN2C(=O)[C@H](CCCNC(=N)N)NC(=O)[C@H](C(C)C)NC(=O)[C@H](Cc2ccc(O)cc2)NC(=O)[C@H](CCCCN)NC(=O)[C@H](Cc2c[nH]c3ccccc23)NC(=O)[C@H](CCCNC(=N)N)NC(=O)[C@H](CCCNC(=N)N)NC(=O)[C@H](CCCCN)NC(=O)[C@H](CCCCN)NC1=O` [Ex. 2] (cyclo(RWLKKRRWKYVR[dP]P)), in data set [1], the “Minimal inhibitory concentration (MIC) Escherichia coli ATCC 43827” value worked out at 100 µg/mL (≈ 51.2 µM). Also, in data set [2], the “Minimal inhibitory concentration (MIC) P. aeruginosa VO216085” value was determined as 6.2 µg/mL (≈ 3.18 µM). The “Minimal inhibitory concentration (MIC) P. aeruginosa ATCC 278853” value in data set [3] worked out at 9.4 µg/mL (≈ 4.82 µM). Also, the “Minimal inhibitory concentration (MIC) Escherichia coli ATCC 25922” value in data set [4] amounted to 100 µg/mL (≈ 51.2 µM). Further, the “Minimal inhibitory concentration (MIC) Acinetobacter V12 21193/1” value in data set [5] turned out to be 25 µg/mL (≈ 12.8 µM). In addition, the “Minimal inhibitory concentration (MIC) Acinetobacter V12 21143/1” value in data set [6] was found to be 12.5 µg/mL (≈ 6.41 µM). For the same molecule, the “Minimal inhibitory concentration (MIC) Staphylococcus attreus ATCC 29213” value in data set [7] amounted to 100 µg/mL (≈ 51.2 µM). The “Hemolysis at 100 μg/ml (percentage hemolysis)” value in data set [8] is given as 0.5%.
On to `CC(C)C[C@@H]1NC(=O)[C@H](Cc2c[nH]c3ccccc23)NC(=O)[C@H](CCCNC(=N)N)NC(=O)[C@H](CCCNC(=N)N)NC(=O)[C@H](CCCCN)NC(=O)[C@H](CCCCN)NC(=O)[C@H](CC(C)C)NC(=O)[C@H](Cc2c[nH]c3ccccc23)NC(=O)[C@H](CCCNC(=N)N)NC(=O)[C@@H]2CCCN2C(=O)[C@H]2CCCN2C(=O)[C@H](CCCNC(=N)N)NC(=O)[C@H](Cc2ccc(O)cc2)NC(=O)[C@H](Cc2ccc(O)cc2)NC1=O` [compound 1] (cyclo(RWLKKRRWLYYR[dP]P)), for which the “Minimal inhibitory concentration (MIC) Escherichia coli ATCC 43827” value in data set [1] amounted to 200 µg/mL (≈ 100 µM). The “Minimal inhibitory concentration (MIC) P. aeruginosa VO216085” value in data set [2] is 50 µg/mL (≈ 25 µM). Besides, the “Minimal inhibitory concentration (MIC) P. aeruginosa ATCC 278853” value in data set [3] was determined as 50 µg/mL (≈ 25 µM). In data set [4], the “Minimal inhibitory concentration (MIC) Escherichia coli ATCC 25922” value was determined as 100 µg/mL (≈ 50 µM). For the same molecule, the “Minimal inhibitory concentration (MIC) Acinetobacter V12 21193/1” value in data set [5] stood at 6.2 µg/mL (≈ 3.1 µM). Moreover, the “Minimal inhibitory concentration (MIC) Acinetobacter V12 21143/1” value in data set [6] stood at 6.2 µg/mL (≈ 3.1 µM). For the same molecule, in data set [7], the “Minimal inhibitory concentration (MIC) Staphylococcus attreus ATCC 29213” value was found to be 25 µg/mL (≈ 12.5 µM). Also, in data set [8], the “Hemolysis at 100 μg/ml (percentage hemolysis)” value is reported as 0.5%.
Regarding `CC(C)C[C@@H]1NC(=O)[C@H](Cc2c[nH]c3ccccc23)NC(=O)[C@H](CCCNC(=N)N)NC(=O)[C@@H]2CCCN2C(=O)[C@H]2CCCN2C(=O)[C@H](CCCNC(=N)N)NC(=O)[C@H](Cc2ccc(O)cc2)NC(=O)[C@H]([C@@H](C)O)NC(=O)[C@H](CCCCN)NC(=O)[C@H](Cc2c[nH]c3ccccc23)NC(=O)[C@H](CCCNC(=N)N)NC(=O)[C@H](CCCNC(=N)N)NC(=O)[C@H](CCCCN)NC(=O)[C@H](CCCCN)NC1=O` [compound 3] (cyclo(RWLKKRRWKTYR[dP]P)), the “Minimal inhibitory concentration (MIC) Escherichia coli ATCC 43827” value in data set [1] was found to be 200 µg/mL (≈ 102 µM). Further, in data set [2], the “Minimal inhibitory concentration (MIC) P. aeruginosa VO216085” value came out at 9.4 µg/mL (≈ 4.81 µM). Also, the “Minimal inhibitory concentration (MIC) P. aeruginosa ATCC 278853” value in data set [3] worked out at 200 µg/mL (≈ 102 µM). Further, the “Minimal inhibitory concentration (MIC) Escherichia coli ATCC 25922” value in data set [4] is 200 µg/mL (≈ 102 µM). The “Minimal inhibitory concentration (MIC) Acinetobacter V12 21193/1” value in data set [5] was 100 µg/mL (≈ 51.2 µM). The “Minimal inhibitory concentration (MIC) Acinetobacter V12 21143/1” value in data set [6] amounted to 25 µg/mL (≈ 12.8 µM). In addition, in data set [7], the “Minimal inhibitory concentration (MIC) Staphylococcus attreus ATCC 29213” value came out at 100 µg/mL (≈ 51.2 µM). In addition, the “Hemolysis at 100 μg/ml (percentage hemolysis)” value in data set [8] came out at 1.5%.
On to `CC(C)C[C@@H]1NC(=O)[C@H](Cc2c[nH]c3ccccc23)NC(=O)[C@H](CCCNC(=N)N)NC(=O)[C@@H]2CCCN2C(=O)[C@H]2CCCN2C(=O)[C@H](CCCNC(=N)N)NC(=O)[C@H](Cc2ccc(O)cc2)NC(=O)[C@H](CCC(N)=O)NC(=O)[C@H](CCCCN)NC(=O)[C@H](Cc2c[nH]c3ccccc23)NC(=O)[C@H](CCCNC(=N)N)NC(=O)[C@H](CCCNC(=N)N)NC(=O)[C@H](CCCCN)NC(=O)[C@H](CCCCN)NC1=O` [compound 4] (cyclo(RWLKKRRWKQYR[dP]P)), for which the “Minimal inhibitory concentration (MIC) Escherichia coli ATCC 43827” value in data set [1] came to 200 µg/mL (≈ 101 µM). In data set [2], the “Minimal inhibitory concentration (MIC) P. aeruginosa VO216085” value was 3.1 µg/mL (≈ 1.57 µM). For the same molecule, the “Minimal inhibitory concentration (MIC) P. aeruginosa ATCC 278853” value in data set [3] came to 6.2 µg/mL (≈ 3.13 µM). In addition, the “Minimal inhibitory concentration (MIC) Escherichia coli ATCC 25922” value in data set [4] is 100 µg/mL (≈ 50.5 µM). Moreover, the “Minimal inhibitory concentration (MIC) Acinetobacter V12 21193/1” value in data set [5] was 25 µg/mL (≈ 12.6 µM). For the same molecule, the “Minimal inhibitory concentration (MIC) Acinetobacter V12 21143/1” value in data set [6] amounted to 12.5 µg/mL (≈ 6.31 µM). Further, the “Minimal inhibitory concentration (MIC) Staphylococcus attreus ATCC 29213” value in data set [7] was 100 µg/mL (≈ 50.5 µM). Moreover, in data set [8], the “Hemolysis at 100 μg/ml (percentage hemolysis)” value amounted to 0.6%.
For the molecule `CC(C)C[C@@H]1NC(=O)[C@H](Cc2c[nH]c3ccccc23)NC(=O)[C@H](CCCNC(=N)N)NC(=O)[C@@H]2CCCN2C(=O)[C@H]2CCCN2C(=O)[C@H](CCCNC(=N)N)NC(=O)[C@H](Cc2ccc(O)cc2)NC(=O)[C@H](Cc2ccc(O)cc2)NC(=O)[C@H](CCCCN)NC(=O)[C@H](Cc2c[nH]c3ccccc23)NC(=O)[C@H](CCCNC(=N)N)NC(=O)[C@H](CCCNC(=N)N)NC(=O)[C@H](CCCCN)NC(=O)[C@H](C(C)C)NC1=O` [compound 5] (cyclo(RWLVKRRWKYYR[dP]P)), the “Minimal inhibitory concentration (MIC) Staphylococcus attreus ATCC 29213” value in data set [7] worked out at 100 µg/mL (≈ 50.3 µM). Besides, the “Hemolysis at 100 μg/ml (percentage hemolysis)” value in data set [8] turned out to be 0.5%.
On the same counts, the results for `CC(C)C[C@@H]1NC(=O)[C@H](Cc2c[nH]c3ccccc23)NC(=O)[C@H](CCCNC(=N)N)NC(=O)[C@@H]2CCCN2C(=O)[C@H]2CCCN2C(=O)[C@H](CCCNC(=N)N)NC(=O)[C@H](Cc2ccc(O)cc2)NC(=O)[C@H](Cc2ccc(O)cc2)NC(=O)[C@H](C(C)C)NC(=O)[C@H](Cc2c[nH]c3ccccc23)NC(=O)[C@H](CCCNC(=N)N)NC(=O)[C@H](CCCNC(=N)N)NC(=O)[C@H](CCCCN)NC(=O)[C@H](CCCCN)NC1=O` [compound 6] (cyclo(RWLKKRRWVYYR[dP]P)) are 100 µg/mL (≈ 50.3 µM) and 0.5%.
On the same counts, the results for `CC(C)C[C@@H]1NC(=O)[C@H](Cc2c[nH]c3ccccc23)NC(=O)[C@H](CCCNC(=N)N)NC(=O)[C@@H]2CCCN2C(=O)[C@H]2CCCN2C(=O)[C@H](CCCNC(=N)N)NC(=O)[C@H](CCC(N)=O)NC(=O)[C@H](Cc2ccc(O)cc2)NC(=O)[C@H](CCCCN)NC(=O)[C@H](Cc2c[nH]c3ccccc23)NC(=O)[C@H](CCCNC(=N)N)NC(=O)[C@H](CCCNC(=N)N)NC(=O)[C@H](CCCCN)NC(=O)[C@H](CCCCN)NC1=O` [compound 7] (cyclo(RWLKKRRWKYQR[dP]P)) are 200 µg/mL (≈ 101 µM) and 0.7%.
On the same counts, the results for `CC(C)C[C@@H]1NC(=O)[C@H](Cc2c[nH]c3ccccc23)NC(=O)[C@H](CCCNC(=N)N)NC(=O)[C@@H]2CCCN2C(=O)[C@H]2CCCN2C(=O)[C@H](CCCNC(=N)N)NC(=O)[C@H](CC(C)C)NC(=O)[C@H](Cc2ccc(O)cc2)NC(=O)[C@H](CCCCN)NC(=O)[C@H](Cc2c[nH]c3ccccc23)NC(=O)[C@H](CCCNC(=N)N)NC(=O)[C@H](CCCNC(=N)N)NC(=O)[C@H](CCCCN)NC(=O)[C@H](CCCCN)NC1=O` [compound 8] (cyclo(RWLKKRRWKYLR[dP]P)) are 100 µg/mL (≈ 50.9 µM) and 0.4%.
